Test results: patent US6686354B2, “Agonists and antagonists of peripheral-type benzodiazepine receptors” (Scios, Inc., priority 1998, dated 2004)

Assays:
[1] = tested on: neonatal rat cardiomyocytes; assay: Morphology of neonatal rat cardiomyocyte cultures (photography); type: cell-based; settings: 10^-10 M, serum-free
Experimental: When cardiomyocytes undergo hypertrophy, their morphology changes quite drastically. The cells become larger and more spread out so another technique employed to monitor hypertrophic effects on cardiomyocytes is to assess their morphology and document that by photography.
d. Neonatal rat cardiomyocytes were cultures in 6-well plates overnight following isolation. […] FIGS. 10B and 10C show the same cultures following 96 hours of culture and the differenes between control and treated are quite striking.

[2] = tested on: neonatal rat cardiomyocytes; assay: Protein synthesis ([3H]phenylalanine incorporation) in neonatal rat cardiomyocytes; type: cell-based
Excerpt: Neonatal rat ventricular cardiomyocytes were isolated from one or two days old rat pups using the following reagents and isolation procedure:
When cardiomyocytes undergo hypertrophy several biochemical parameters can be monitored. There is an increase in protein synthesis and atrial natriuretic peptide (ANP) synthesis and an upregulation of the β-myosin heavy chain gene. These three parameters were used to assess the effects of ligands of the peripheral-type benzodiazepine receptor (PTBR) upon neonatal rat cardiomyocytes.
Protein synthesis is assessed by including radiolabelled amino acids in the experimental incubation medias (i.e., [^3H]phenylalanine) at the end of the incubation the cell monolayer is washed with phosphate bufered saline, fized with 10% TCA and lysed with 0.25N NaOH. The total cell lysate is then assessed for tritium contant by scintillation spectrometry.
a. Neonatal rat cardiomyocytes were cultured in 24-well plates for 24 hours in serum-free medium. Medium was then removed and replaced with experimental culture medium containing [^3H]phenylalanine (10 μCi/ml) and either the PTBR agonist Ro5-4864 (RBI, MA, USA) in a concentration range of 10^−12-10^−8 M, or the PTBR antagonist PK11195 (RBI, MA, US) in a concentration range of 10^−12-10^−8 M. Control incubations received [^3H]phenylalanine (10 μCi/ml) containing medium alone. Cell cultures were returned to the incubator for a further 48 hour incubation after which time the cell culture supernatants were harvested for ANP analysis and the cell monolayers were prepared for assessment of tritium incorporation. […] However, at concentrations greater than or equal to 10^−11 M, the PTBR agonist Ro5-4864 caused a three-fold increase in protein synthesis and a five-fold increase in ANP synthesis. Data are expressed as the mean+/−standard deviations of quadruplet samples.
b. Neonatal rat cardiomyocytes were cultured in 24-well plates for 24 hours in serum-free medium. Medium was then removed and replaced with experimental culture medium containing [^3H]phenylalanine (10 μCi/ml) and either the PTBR agonist Ro5-4864 (RBI, MA, USA) in a concentration range of 10^−12-10^−8 M, or the PTBR antagonist PK11195 (RBI, MA, US) at a concentration of 10^−10 M. Control incubations received [^3H]phenylalanine (10 μCi/ml) containing medium alone. Cell cultures were returned to the incubator for a further 48 hour incubation after which time the cell culture supernatants were harvested for ANP analysis and the cell monolayers were prepared for assessment of tritium incorporation. […] Data are expressed as the mean+/−standard deviations of quadruplet samples.

[3] = tested on: isolated working rat heart; settings: cited from earlier work
[4] = tested on: neonatal rat cardiomyocytes; assay: Hypertrophic response of neonatal rat cardiomyocytes (conclusions over all readouts); type: cell-based
[5] = tested on: isolated perfused Langendorf rat heart; settings: cited from earlier work
human atrial strips = settings: cited from earlier work
β-MHC promoter = assay: β-MHC promoter-luciferase reporter in neonatal rat cardiomyocytes; type: cell-based; settings: greater than or equal to 10^-11 M; 24 hours; normalized to SEAP; FIG. 9
Experimental: To monitor the expression of β-MHC, β-MHC promoter-luciferase reporter plasmid was constructed. This plasmid is inserted into the cardiomyocyte cultures by liposome mediated transfection and luciferase activity in cell lysates determined following incubation. The amount of luciferase actvity is directly proportional to the level of transcription of the β-MHC gene.
c. Neonatal cardiomyocytes were cultures in 6-well plates overnight following isolation. The cell monolayers were then transfected with a β-MHC promoter-luciferase reported plasmid and a control plasmid to aid data normalization (pSEAP2 Clontech Corp) using lipofectamine liposome mediated plasmid delivery. Following recovery from the transfection, the cell cultures were treated for 24 hours in the presence and absence of the PTBR agonist Ro5-4864 at 10^−12 M, 10^−11 M and 10^−10 M. The culture supernatants were then harvested for SEAP activity and cell lysates prepared for luciferase assay. […] Data are expressed as the mean+/−standard derivations of triplicate samples.

[6] = tested on: guinea pig heart preparation; settings: cited from earlier work
[7] = tested on: neonatal rat cardiomyocytes; assay: ANP synthesis (competition binding ELISA of culture supernatants) in neonatal rat cardiomyocytes; type: cell-based
[8] = following intravenous administration; cited from earlier work
[9] = dogs; cited from earlier work
[10] = tested on: isolated cardiac and smooth muscle; settings: cited from earlier work
[11] = tested on: isolated rat heart preparation; settings: cited from earlier work
[12] = tested on: [3H]diazepam binding to heart tissue; settings: cited from earlier work
[3H]diazepam binding to heart tissue, sequence (P30536 2-169 limits assumed): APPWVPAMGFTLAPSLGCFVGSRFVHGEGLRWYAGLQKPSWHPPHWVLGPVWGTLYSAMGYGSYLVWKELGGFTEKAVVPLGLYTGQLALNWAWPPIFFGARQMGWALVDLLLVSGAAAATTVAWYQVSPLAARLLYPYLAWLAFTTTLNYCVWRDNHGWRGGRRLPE

PTBR = PTBR (Homo sapiens, UniProt P30536); settings: cited from earlier work
PTBR, sequence (P30536 whole entry): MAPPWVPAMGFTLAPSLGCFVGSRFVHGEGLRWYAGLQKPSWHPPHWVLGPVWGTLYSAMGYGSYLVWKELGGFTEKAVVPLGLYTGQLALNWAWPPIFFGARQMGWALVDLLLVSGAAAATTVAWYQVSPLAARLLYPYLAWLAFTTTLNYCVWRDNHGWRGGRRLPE

[13] = Ro5-4864 at higher concentrations (10^-11-10^-8 M) with 10^-10 M PK11195, FIG. 8
[14] = concentrations greater than or equal to 10^-11 M, 48 hour incubation, vs control, FIG. 7
[15] = isolated perfused Langendorf rat heart
[16] = 10^-11 M PK11195 (so in the source), Ro5-4864 10^-12-10^-10 M, 48 hour, FIG. 8
[17] = compound alone, 10^-12-10^-8 M, 48 hour incubation, FIG. 7

For `CN1C(=O)CN=C(c2ccc(Cl)cc2)c2cc(Cl)ccc21` [Ro5-4864], the “cell size / morphology of cardiomyocytes” value ([1]; 24 hours of culture, FIG. 10A) was “larger cell size”, the “cell size / morphology of cardiomyocytes” value ([1]; 96 hours of culture, FIGS. 10B and 10C) was “much larger and adherent to the extracellular matrix” and the “agonist induced increase in protein synthesis in the presence of PK11195” value [2, 13] was “able to overcome the inhibitory effect of PK11195”. For the same compound, the “increase in protein synthesis (incorporation of radiolabelled phenylalanine)” value [2, 14] was “three-fold”, the “effect on cardiac function” value [3] was “depress cardiac function” and the “hypertrophic response: increase in protein synthesis, ANP synthesis, transcription of the β-MHC gene reporter” value ([4]; summary of Example 2) was “three- to five-fold”. For the same compound, the coronary flow [5, 15] was “increase coronary flow”, the “heart rate and left ventricular contractility” value [5, 15] was “without affecting” and the “depressant effect on the contraction amplitude (negative inotropic effect)” value (human atrial strips) was 20%. For the same compound, the “increase in luciferase activity (transcriptional activity from the β-MHC promoter)” value (β-MHC promoter) was “three-fold”, the “duration of intracellular action potential and contractility” value (shortened to “duration”) [6] was “decreased” and the “agonist induced increase in ANP synthesis in the presence of PK11195” value [7, 13] was “able to overcome the inhibitory effect of PK11195”. For the same compound, the “increase in ANP synthesis” value [7, 14] was “five-fold”.

For `CN1C(=O)CN=C(c2ccccc2)c2cc(Cl)ccc21` [diazepam], the vagal tone [8] is listed as “decrease”, the “potentiation of the coronary vasodilator action of adenosine” value [9] is listed as “potentiates” and the “potentiation of the actions of adenosine” value [10] is listed as “potentiates”. For the same compound, the inotropic effect [11] was “transient negative inotropic effect followed by a positive inotropic response”, the contractile force ([5]; Langendorf rat heart) was “increased contractile force” and the “duration” value [6] was “less effective”.

For `OCCN(CCO)c1nc(N2CCCCC2)c2nc(N(CCO)CCO)nc(N3CCCCC3)c2n1` [dipyridamole], the “competition of [3H]diazepam binding” value [12] is listed as “can compete”.

For `O=C1CN=C(c2ccccc2Cl)c2cc([N+](=O)[O-])ccc2N1` [clonazepam], the “duration” value [6] is listed as “ineffective”.

For `CCC(C)N(C)C(=O)c1cc2ccccc2c(-c2ccccc2Cl)n1` (centres unmarked) [PK11195, 1-(2-chlorophenyl)-N-methyl-N-(1-methylpropyl)-3-isoquinoline carboxamide], the “effect on the Ro5-4864 induced increase in protein synthesis” value [2, 16] is given as “prevented”, the “effect on protein synthesis (incorporation of radiolabelled phenylalanine)” value [2, 17] is given as “no effects” and the “effect on cardiac function” value [3] is given as “depress cardiac function”. The “reversal of the Ro5-4864 hypertrophic effect” value ([4]; coincubation of Ro5-4864 with PK11195) was “can be reversed”, the “antagonism of the positive inotropy induced by diazepam” value [11] was “antagonized” and the “antagonism of the vasodilatory effect of Ro5-4864” value [5, 15] was “did not antagonize”. For the same compound, the “antagonism of the depressant effect of Ro5-4864” value (human atrial strips) was “not antagonized”, the “reversal of the effects of Ro5-4864” value [6] was “reversed” and the “effect on the Ro5-4864 induced increase in ANP synthesis” value [7, 16] was “prevented”. For the same compound, the “effect on ANP synthesis” value [7, 17] was “no effects”.

For “trikontetraneuropeptide: shorter fragment of DBI (fragment 17-50) (KTKPSDEEMLFIYGHYKQATVGDINTERPGMLDF; Triakontatetraneuropeptide; UniProt P07108 17-50, looked up, fragment)”, the “selectivity for PTBR relative to DBI” value (PTBR) is given as “more selective for PTBR”.
